Measurements: ChEMBL document CHEMBL1926576, “Fragment based lead discovery of small molecule inhibitors for the EPHA4 receptor tyrosine kinase” (Eur J Med Chem, 2012)
pIC50: −log10 of the molar value.

Target: T1, Ephrin type-A receptor 4 (Homo sapiens, UniProt P54764)
Assay: Inhibition of his-tagged EPHA4-mediated poly(Glu,Tyr) phosphorylation after 75 mins using E4:Y1 as substrate by fluorescence assay

T1 sequence (P54764 whole entry): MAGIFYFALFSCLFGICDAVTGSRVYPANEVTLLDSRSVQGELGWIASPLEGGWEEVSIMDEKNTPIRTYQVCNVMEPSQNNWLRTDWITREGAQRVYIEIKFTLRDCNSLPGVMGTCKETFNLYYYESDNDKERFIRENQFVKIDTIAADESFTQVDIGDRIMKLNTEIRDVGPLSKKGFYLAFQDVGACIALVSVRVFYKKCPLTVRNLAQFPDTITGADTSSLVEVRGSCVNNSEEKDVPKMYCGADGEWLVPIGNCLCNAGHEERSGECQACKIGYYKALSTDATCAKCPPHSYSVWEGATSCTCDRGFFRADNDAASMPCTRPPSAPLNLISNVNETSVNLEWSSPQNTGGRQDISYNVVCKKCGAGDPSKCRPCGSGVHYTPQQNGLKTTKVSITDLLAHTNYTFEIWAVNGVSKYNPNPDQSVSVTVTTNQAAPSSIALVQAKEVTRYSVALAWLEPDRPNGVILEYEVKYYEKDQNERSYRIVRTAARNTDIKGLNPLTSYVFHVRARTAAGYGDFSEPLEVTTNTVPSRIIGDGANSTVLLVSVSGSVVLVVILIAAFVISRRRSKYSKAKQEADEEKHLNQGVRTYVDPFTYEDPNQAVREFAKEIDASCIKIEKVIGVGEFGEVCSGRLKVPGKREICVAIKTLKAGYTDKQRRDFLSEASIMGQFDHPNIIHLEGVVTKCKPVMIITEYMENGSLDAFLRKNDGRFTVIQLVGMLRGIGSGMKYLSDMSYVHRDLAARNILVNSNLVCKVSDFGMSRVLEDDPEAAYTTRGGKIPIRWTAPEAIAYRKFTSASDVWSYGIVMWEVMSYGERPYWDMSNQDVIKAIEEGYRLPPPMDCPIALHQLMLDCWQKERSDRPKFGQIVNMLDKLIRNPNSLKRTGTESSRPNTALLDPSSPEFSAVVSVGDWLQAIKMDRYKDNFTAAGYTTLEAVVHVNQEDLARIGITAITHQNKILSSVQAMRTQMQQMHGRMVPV

Row | pIC50 | Compound
1 | 5.09 | Nc1n[nH]c2nc(-c3ccccc3Cl)c3c(c12)CCCC3
2 | 5.70 | Cc1ccccc1-c1nc2[nH]nc(N)c2c2c1CCCC2

Target: T1, Ephrin type-A receptor 4
Assay: Inhibition of his-tagged EPHA4-mediated poly(Glu,Tyr) phosphorylation at 200 uM after 75 mins using E4:Y1 as substrate by fluorescence assay

Row | inhibition [%] | Compound
3 | 87 | CC1(C)Cc2c(c(-c3ccccc3)nc3[nH]nc(N)c23)CS1
4 | 82 | CC(C)c1nc2[nH]nc(N)c2c2c1COC(C)(C)C2
5 | 75 | CC1(C)Cc2c(c(-c3ccco3)[nH]c3nnc(N)c2-3)CO1
6 | 70 | Cc1nc2[nH]nc(N)c2c2c1CSC(C)(C)C2
7 | 77 | CCCc1nc2[nH]nc(N)c2c2c1COC(C)(C)C2
8 | 90 | CC1(C)Cc2c(c(-c3ccccc3)nc3[nH]nc(N)c23)CO1

The next lines start with the molecule.

Row | Compound | inhibition [%]
9 | CN1CCc2c(c(NCc3ccccc3)nc3[nH]nc(N)c23)C1 | 33
10 | CN1CCc2c(c(N3CCOCC3)nc3[nH]nc(N)c23)C1 | 0
11 | CN1CCc2c(c(NCCO)nc3[nH]nc(N)c23)C1 | 0
12 | Nc1n[nH]c2ncc3c(c12)CCCCCC3 | 80
13 | Cc1cc(C)c2c(NC(=O)c3ccccc3)n[nH]c2n1 | 10
14 | CCN(CC)c1nc2[nH]nc(N)c2c2c1CN(C)CC2 | 5

Target: T1, Ephrin type-A receptor 4
Assay: Inhibition of his-tagged EPHA4-mediated poly(Glu,Tyr) phosphorylation at 500 uM after 75 mins using E4:Y1 as substrate by fluorescence assay

Row | inhibition [%] | Compound
15 | 80 | Nc1n[nH]c2ncc3c(c12)CCCC3
